PubChem BioAssay (NCI)
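Method: 48-hour compound exposure of cells in 96-well plates, five concentrations, linear interpolation of endpoints. TGI: concentration producing complete growth inhibition.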

Key:
Assay in all cases: NCI tumour cell line growth inhibition, 48 h
[1] = tested on: CAKI-1 renal
[2] = tested on: A498 renal
[3] = tested on: SNB-75 CNS
[4] = tested on: MDA-MB-231 breast
[5] = tested on: OVCAR-5 ovarian
[6] = tested on: PC-3 prostate
[7] = tested on: RXF 393 renal
[8] = tested on: SN12C renal
[9] = tested on: UACC-257 melanoma
[10] = tested on: NCI-H226 lung
[11] = tested on: MOLT-4 leukemia
[12] = tested on: MDA-MB-435
[13] = tested on: MALME-3M melanoma
[14] = tested on: HCT-15 colon
[15] = tested on: MCF7 breast
[16] = tested on: OVCAR-4 ovarian
[17] = tested on: NCI/ADR-RES ovarian
[18] = tested on: T-47D breast
[19] = tested on: SK-MEL-28 melanoma
[20] = tested on: HT29 colon
[21] = tested on: UACC-62 melanoma
[22] = tested on: OVCAR-8 ovarian
[23] = tested on: CCRF-CEM leukemia
[24] = tested on: DU-145 prostate
[25] = tested on: COLO 205 colon
[26] = tested on: HOP-92 NSCLC
[27] = tested on: UO-31 renal
[28] = tested on: SF-295 CNS
[29] = tested on: IGROV1 ovarian
[30] = tested on: SR leukemia
[31] = tested on: HCC-2998 colon
[32] = tested on: EKVX NSCLC
[33] = tested on: U251 CNS
[34] = tested on: SNB-19 CNS
[35] = tested on: SF-539 CNS
[36] = tested on: RPMI-8226 leukemia
[37] = tested on: NCI-H23 lung
[38] = tested on: KM12 colon
[39] = tested on: TK-10 renal
[40] = tested on: OVCAR-3 ovarian
[41] = tested on: MDA-N
[42] = tested on: HS 578T breast
[43] = tested on: NCI-H522 lung
[44] = tested on: BT-549 breast
[45] = tested on: NCI-H460 lung
[46] = tested on: SW-620 colon
[47] = tested on: K-562 leukemia
[48] = tested on: SF-268 CNS
[49] = tested on: HOP-62 NSCLC
[50] = tested on: 786-0 renal
[51] = tested on: HCT-116 colon
[52] = tested on: SK-MEL-5 melanoma
[53] = tested on: ACHN renal
[54] = tested on: SK-MEL-2 melanoma
[55] = tested on: M14 melanoma
[56] = tested on: SK-OV-3 ovarian
[57] = tested on: A549 NSCLC
[58] = tested on: LOX IMVI melanoma
[59] = tested on: HL-60(TB) leukemia

SMILES: COC(=O)C1=C(C)N2[C@H](C(=O)O)CS[C@@]2(C)[C@H](C(=O)OC)[C@H]1c1cccc([N+](=O)[O-])c1
- TGI [1]: > 100 µM
- TGI [2]: > 100 µM
- TGI [3]: > 100 µM
- TGI [4]: > 100 µM
- TGI [5]: > 100 µM
- TGI [6]: > 100 µM
- TGI [7]: > 100 µM
- TGI [8]: > 100 µM
- TGI [9]: > 100 µM
- TGI [10]: > 100 µM
- TGI [11]: > 100 µM
- TGI [12]: > 100 µM
- TGI [13]: > 100 µM
- TGI [14]: > 100 µM
- TGI [15]: > 100 µM
- TGI [16]: > 100 µM
- TGI [17]: > 100 µM
- TGI [18]: > 100 µM
- TGI [19]: > 100 µM
- TGI [20]: > 100 µM
- TGI [21]: > 100 µM
- TGI [22]: > 100 µM
- TGI [23]: > 100 µM
- TGI [24]: > 100 µM
- TGI [25]: > 100 µM
- TGI [26]: > 100 µM
- TGI [27]: > 100 µM
- TGI [28]: > 100 µM
- TGI [29]: > 100 µM
- TGI [30]: > 100 µM
- TGI [31]: > 100 µM
- TGI [32]: > 100 µM
- TGI [33]: > 100 µM
- TGI [34]: > 100 µM
- TGI [35]: > 100 µM
- TGI [36]: > 100 µM
- TGI [37]: > 100 µM
- TGI [38]: > 100 µM
- TGI [39]: > 100 µM
- TGI [40]: > 100 µM
- TGI [41]: > 100 µM
- TGI [42]: > 100 µM
- TGI [43]: > 100 µM
- TGI [44]: > 100 µM
- TGI [45]: > 100 µM
- TGI [46]: > 100 µM
- TGI [47]: > 100 µM
- TGI [48]: > 100 µM
- TGI [49]: > 100 µM
- TGI [50]: > 100 µM
- TGI [51]: > 100 µM
- TGI [52]: > 100 µM
- TGI [53]: > 100 µM
- TGI [54]: > 100 µM
- TGI [55]: > 100 µM
- TGI [56]: > 100 µM
- TGI [57]: > 100 µM

SMILES: Cc1cn(C2CC(OC(c3ccccc3)(c3ccccc3)c3ccccc3)C(COC(c3ccccc3)(c3ccccc3)c3ccccc3)O2)c(=O)[nH]c1=O (centres undefined)
- TGI [58]: > 100 µM
- TGI [1]: > 100 µM
- TGI [2]: 73.8 µM
- TGI [3]: > 100 µM
- TGI [4]: > 100 µM
- TGI [5]: > 100 µM
- TGI [6]: > 100 µM
- TGI [7]: > 100 µM
- TGI [8]: > 100 µM
- TGI [9]: > 100 µM
- TGI [10]: 88.7 µM
- TGI [11]: > 100 µM
- TGI [12]: > 100 µM
- TGI [13]: > 100 µM
- TGI [14]: > 100 µM
- TGI [15]: > 100 µM
- TGI [16]: > 100 µM
- TGI [17]: > 100 µM
- TGI [19]: > 100 µM
- TGI [20]: > 100 µM
- TGI [21]: > 100 µM
- TGI [22]: > 100 µM
- TGI [23]: > 100 µM
- TGI [24]: > 100 µM
- TGI [25]: > 100 µM
- TGI [26]: 83.6 µM
- TGI [27]: > 100 µM
- TGI [28]: > 100 µM
- TGI [29]: > 100 µM
- TGI [30]: > 100 µM
- TGI [31]: > 100 µM
- TGI [59]: > 100 µM
- TGI [32]: > 100 µM
- TGI [34]: > 100 µM
- TGI [35]: > 100 µM
- TGI [38]: > 100 µM
- TGI [39]: > 100 µM
- TGI [40]: > 100 µM
- TGI [41]: > 100 µM
- TGI [42]: > 100 µM
- TGI [44]: 98.4 µM
- TGI [45]: > 100 µM
- TGI [46]: > 100 µM
- TGI [47]: > 100 µM
- TGI [48]: > 100 µM
- TGI [49]: > 100 µM
- TGI [50]: > 100 µM
- TGI [51]: > 100 µM
- TGI [52]: > 100 µM
- TGI [53]: > 100 µM
- TGI [54]: > 100 µM
- TGI [55]: > 100 µM
- TGI [56]: > 100 µM
- TGI [57]: > 100 µM

SMILES: CCNC(=S)N/N=C/c1ccccn1
- TGI [58]: > 100 µM
- TGI [2]: 36.8 µM
- TGI [3]: > 100 µM
- TGI [4]: > 100 µM
- TGI [5]: > 100 µM
- TGI [6]: > 100 µM
- TGI [7]: > 100 µM
- TGI [8]: 41 µM
- TGI [9]: > 100 µM
- TGI [10]: 22 µM
- TGI [11]: > 100 µM
- TGI [12]: > 100 µM
- TGI [13]: > 100 µM
- TGI [14]: > 100 µM
- TGI [16]: 4.98 µM
- TGI [17]: > 100 µM
- TGI [18]: > 100 µM
- TGI [19]: > 100 µM
- TGI [20]: > 100 µM
- TGI [21]: 26.1 µM
- TGI [22]: > 100 µM
- TGI [23]: > 100 µM
- TGI [24]: 58.5 µM
- TGI [25]: > 100 µM
- TGI [27]: 23.6 µM
- TGI [28]: > 100 µM
- TGI [29]: > 100 µM
- TGI [30]: > 100 µM
- TGI [59]: 23.2 µM
- TGI [32]: > 100 µM
- TGI [33]: 75 µM
- TGI [34]: > 100 µM
- TGI [35]: 29.7 µM
- TGI [37]: 84.8 µM
- TGI [38]: > 100 µM
- TGI [39]: > 100 µM
- TGI [41]: > 100 µM
- TGI [42]: > 100 µM
- TGI [43]: > 100 µM
- TGI [44]: 87.6 µM
- TGI [45]: 27.8 µM
- TGI [46]: > 100 µM
- TGI [47]: > 100 µM
- TGI [48]: 7.56 µM
- TGI [49]: 54 µM
- TGI [50]: > 100 µM
- TGI [51]: 73.7 µM
- TGI [52]: 19.9 µM
- TGI [53]: 70.7 µM
- TGI [54]: > 100 µM
- TGI [55]: 32.7 µM
- TGI [56]: > 100 µM
- TGI [57]: 82.1 µM
